Measurements from patent US8252826B2, “Cyclopentyl- and cycloheptylpyrazoles” (Hoffmann-La Roche Inc., priority 2010, dated 2012).

Target: T1, FXR ligand binding domain (Homo sapiens, UniProt Q96RI1)
T1 sequence (Q96RI1 211-483 limits assumed): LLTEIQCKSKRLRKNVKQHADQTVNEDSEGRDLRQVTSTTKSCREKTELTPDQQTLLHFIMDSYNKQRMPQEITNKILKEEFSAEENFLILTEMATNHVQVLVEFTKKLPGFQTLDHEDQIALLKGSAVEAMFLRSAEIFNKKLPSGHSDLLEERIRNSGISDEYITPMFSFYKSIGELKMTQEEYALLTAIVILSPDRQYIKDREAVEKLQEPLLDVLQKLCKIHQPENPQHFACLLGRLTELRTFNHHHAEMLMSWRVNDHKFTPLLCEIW
Assay: Radioligand binding assay (scintillation proximity radioligand displacement)
Method: Radioligand Binding Assay
Binding of test substances to the FXR ligand binding domain was assessed in a radioligand displacement assay. The assay was performed in a buffer consisting of 50 mM Hepes, pH 7.4, 10 mM NaCl, 5 mM MgCl2. […] All binding assays were performed in 96-well plates and the amount of bound ligand was measured on a Packard TopCount using OptiPlates (Packard). Dose response curves were performed within a range of concentration from 6×10^−9 M to 2.5×10^−5 M.

Row | SMILES | IC50
1 | COC(=O)c1cc(C)c(OCC(c2c3c(nn2-c2ccc(Cl)cc2)CCC3)C2CCCCC2)c(C)c1 (stereo not drawn) [Example 1, 4-{2-[2-(4-Chloro-phenyl)-2,4,5,6-tetrahydro-cyclopentapyrazol-3-yl]-2-cyclohexyl-ethoxy}-3,5-dimethyl-benzoic acid methyl ester] | 28700 nM
2 | N#Cc1ccc(OCC(c2c3c(nn2-c2ccc(Cl)cc2)CCC3)C2CCCCC2)c(F)c1 (stereo not drawn) [Example 3, 4-{2-[2-(4-Chloro-phenyl)-2,4,5,6-tetrahydro-cyclopentapyrazol-3-yl]-2-cyclohexyl-ethoxy}-3-fluoro-benzonitrile] | 1300 nM
3 | O=C(NC1CCCCC1)C(c1c2c(nn1-c1ccc(Cl)cc1)CCC2)C1CCCCC1 (stereo not drawn) [Example 4, 2-[2-(4-Chloro-phenyl)-2,4,5,6-tetrahydro-cyclopentapyrazol-3-yl]-2,N-dicyclohexyl-acetamide] | 3300 nM
4 | Fc1cc(-c2nnn[nH]2)ccc1OCC(c1c2c(nn1-c1ccc(Cl)cc1)CCC2)C1CCCCC1 (stereo not drawn) [Example 5, 2-(4-Chloro-phenyl)-3-{1-cyclohexyl-2-[2-fluoro-4-(2H-tetrazol-5-yl)-phenoxy]-ethyl}-2,4,5,6-tetrahydro-cyclopentapyrazole] | 92 nM
5 | O=C(O)c1ccc(NC(=O)C(c2c3c(nn2-c2ccc(Cl)cc2)CCC3)C2CCCCC2)c(F)c1 (stereo not drawn) [Example 6, 4-{2-[2-(4-Chloro-phenyl)-2,4,5,6-tetrahydro-cyclopentapyrazol-3-yl]-2-cyclohexyl-acetylamino}-3-fluoro-benzoic acid] | 603 nM
6 | O=C(O)c1ccc(OCC(c2c3c(nn2-c2ccc(Cl)cc2)CCC3)C2CCCCC2)nc1 (stereo not drawn) [Example 7, 6-{2-[2-(4-Chloro-phenyl)-2,4,5,6-tetrahydro-cyclopentapyrazol-3-yl]-2-cyclohexyl-ethoxy}-nicotinic acid] | 52 nM
7 | O=C(O)c1ccc(SCC(c2c3c(nn2-c2ccc(Cl)cc2)CCC3)C2CCCCC2)cc1 (stereo not drawn) [Example 8, 4-{2-[2-(4-Chloro-phenyl)-2,4,5,6-tetrahydro-cyclopentapyrazol-3-yl]-2-cyclohexyl-ethylsulfanyl}-benzoic acid] | 1100 nM
8 | CCOC(=O)C(C)(C)Oc1ccc(NC(=O)C(c2c3c(nn2-c2ccc(Cl)cc2)CCCCC3)C2CCCCC2)c(F)c1 (stereo not drawn) [Example 9, 2-(4-{2-[2-(4-Chloro-phenyl)-2,4,5,6,7,8-hexahydro-cycloheptapyrazol-3-yl]-2-cyclohexyl-acetylamino}-3-fluoro-phenoxy)-2-methyl-propionic acid ethyl ester] | 21400 nM
9 | CC(C)(Oc1ccc(NC(=O)C(c2c3c(nn2-c2ccc(Cl)cc2)CCCCC3)C2CCCCC2)c(F)c1)C(=O)O (stereo not drawn) [Example 10, 2-(4-{2-[2-(4-Chloro-phenyl)-2,4,5,6,7,8-hexahydro-cycloheptapyrazol-3-yl]-2-cyclohexyl-acetylamino}-3-fluoro-phenoxy)-2-methyl-propionic acid] | 1300 nM
10 | O=C(NC1CCCCC1)C(c1c2c(nn1-c1ccc(Cl)cc1)CCCCC2)C1CCCCC1 (stereo not drawn) [Example 11, 2-[2-(4-Chloro-phenyl)-2,4,5,6,7,8-hexahydro-cycloheptapyrazol-3-yl]-2,N-dicyclohexyl-acetamide] | 2400 nM

Results, then the molecule that gave them:

Row | IC50 | SMILES
11 | 7000 nM | COC(=O)c1ccc(NC(=O)C(c2c3c(nn2-c2ccc(Cl)cc2)CCCCC3)C2CCCCC2)c(F)c1 (stereo not drawn) [Example 12, 4-{2-[2-(4-Chloro-phenyl)-2,4,5,6,7,8-hexahydro-cycloheptapyrazol-3-yl]-2-cyclohexyl-acetylamino}-3-fluoro-benzoic acid methyl ester]
12 | 1700 nM | O=C(O)c1ccc(NC(=O)C(c2c3c(nn2-c2ccc(Cl)cc2)CCCCC3)C2CCCCC2)c(F)c1 (stereo not drawn) [Example 13, 4-{2-[2-(4-Chloro-phenyl)-2,4,5,6,7,8-hexahydro-cycloheptapyrazol-3-yl]-2-cyclohexyl-acetylamino}-3-fluoro-benzoic acid]
13 | 21300 nM | N#Cc1ccc(OCC(c2c3c(nn2-c2ccc(Cl)cc2)CCCCC3)C2CCCCC2)c(F)c1 (stereo not drawn) [Example 14, 4-{2-[2-(4-Chloro-phenyl)-2,4,5,6,7,8-hexahydro-cycloheptapyrazol-3-yl]-2-cyclohexyl-ethoxy}-3-fluoro-benzonitrile]
14 | 530 nM | Cc1cc(C(=O)O)cc(C)c1OCC(c1c2c(nn1-c1ccc(Cl)cc1)CCCCC2)C1CCCCC1 (stereo not drawn) [Example 15, 4-{2-[2-(4-Chloro-phenyl)-2,4,5,6,7,8-hexahydro-cycloheptapyrazol-3-yl]-2-cyclohexyl-ethoxy}-3,5-dimethyl-benzoic acid]
15 | 155 nM | Fc1cc(-c2nnn[nH]2)ccc1OCC(c1c2c(nn1-c1ccc(Cl)cc1)CCCCC2)C1CCCCC1 (stereo not drawn) [Example 16, 2-(4-Chloro-phenyl)-3-{1-cyclohexyl-2-[2-fluoro-4-(1H-tetrazol-5-yl)-phenoxy]-ethyl}-2,4,5,6,7,8-hexahydro-cycloheptapyrazole]
